Literature values as cited in patent US6733793B2, “Oral composition with insulin-like activities and methods of use” (MetaProteomics, LLC, priority 2002, dated 2004).

Legend:
[1] = test system: bovine papilloma virus DNA-tranfected C3H/10T1/2 cells; settings: in vitro, bovine papilloma virus DNA-transfected C3H/10T1/2 cells
[2] = rats, inhaled

What does the source list for `O=S(=O)([O-])[O-].[O]=[V+2]` [Vanadyl sulfate]?
Tumor promotion activity [1]: possess tumor promotion activity; Pulmonary inflammation [2]: induce pulmonary inflammation; Chromosomal damage and mitotic recombination (fruit fly): induce chromosomal damage and mitotic recombination
